Measured values published in patent US9567380B1, “Microtubule organizing center (MTOC)-inactivating peptides” (THE RESEARCH FOUNDATION FOR THE STATE UNIVERSITY OF NEW YORK, priority 2015, dated 2017).
Entries after “also recorded” stand apart in the source; their conditions may differ. Ends that are not written are not given here.

What was measured:
[1] = molecular target: human γ-TuRC (centrosome MTOC of human breast cancer cells) (human) (UniProt P23258); assay: cell-based or functional assay
MDA-MB-231 cells = assay: Mitotic arrest after live cell peptide transfection (Chariot) of MDA-MB-231 cells; format: cell-based, human
Procedure: (§1) MCF-7 and MDA-MB-231 (ATCC) cells were maintained in 25 cm^2 tissue culture treated Corning flasks (Sigma-Aldrich) in DMEM complete medium with Glutamax-1 and supplemented with 10% fetal bovine serum. MCF-7 DMEM complete medium was additionally supplemented with 0.01 mg/mL bovine insulin (Sigma-Aldrich). Flasks were maintained at 37° C. in 5% CO2, 95% air, and cells were passaged every 5-7 days using 1 mL TrypLE (Life Technologies).
(§2) For live cell peptide transfection we used the Chariot system (Active Motif) according to the manufacturer's instructions. Cells were seeded into 35 mm tissue culture-treated dishes containing coverslips and grown in complete medium to ˜60% confluency. 1 μg of Kinesin-14 Tail peptide PγTR (GenScript) was diluted in 100 μL 1×PBS on ice. 6 μL of 1/10 PBS-diluted Chariot reagent was further diluted into 100 μL sterile water on ice in a separate tube. Diluted peptide and diluted Chariot were combined and incubated at room temperature for 30 minutes to allow the Chariot-peptide complex to form. Following incubation, media was aspirated from cells, which were then washed once in 1×PBS. The entire 200 μL volume was added to cells in 400 μL serum-free media and gently rocked to ensure even delivery. Plates were returned to 37° C. for 1 hr. Next, DMEM complete growth medium was added to 2 mL without removing the peptide delivery solution (108 μM peptide in 2 mL). Cells were further incubated at 37° C. overnight and fixed after 24 hours.
Human cells were fixed on glass coverslips in −20° C. methanol for 10 minutes, washed with 1×PBS and permeabilized in 0.5% Triton X-100 for 20 minutes. Following further washes, cells were blocked for 30 minutes in 1% bovine serum albumin/knock out serum replacement (BSA/KOSR). […]
(§3) For statistical analysis of phenotypes, n values were chosen as number of cells per strain needed to ensure adequate power to detect significant outcomes. […] For cell cycle arrest by 1 μg transfection of PγTR, 12 fields at 200× were counted. […]

human γ-TuRC = molecular target: T1, human γ-TuRC (Homo sapiens, UniProt P23258+Q9BSJ2); assay: In vitro γ-TuRC microtubule nucleation assay; format: biochemical; details: whole-cell extract from human breast cancer cells; final peptide concentration 60 nM
T1 construct: All other samples use whole-cell extract from human breast cancer cells; endogenous in cells; host or cells: human breast cancer cells (whole-cell extract)
Procedure: In vitro microtubule nucleation assays were performed in a total volume of 5 μL. That is, 3 μL for the sample and 2 μL of tubulin at a 1:5 ratio of Rhodamine:unlabeled tubulin (Cytoskeleton, Inc.). Total tubulin concentration was 3.75 μg/μL in 2.5× tubulin working buffer (2.5×BRB80: 200 mM PIPES, 2.5 mM MgCl2, 2.5 mM EGTA at pH 6.8 and 2.5 mM GTP). For whole cell extract nucleation analysis with peptide, 2 μL of whole cell extract was added with 1 μL of peptide at 300 nM for a final peptide concentration of 60 nM. This 3 μL combination was added first followed by tubulin working buffer. For samples with no peptide, the 5 μL final volume was comprised of 3 μL RIPA buffer and 2 μL of whole cell extract. The 5 μL reaction was combined on ice, quickly spun and returned to ice before incubating in a 37° C. water bath for 4 minutes. Sample incubation was staggered at 20 s intervals to allow for pipetting. After 4 minutes, 50 μL of 1% glutaraldehyde fixing solution was added and tubes were incubated at room temperature for 3 minutes. Samples were completed by addition of 1 mL 1×BRB80, inverting multiple times to mix. […] Images of multiple fields were collected and the average microtubule number per field was determined.

[2] = test system: human MCF-7 breast cancer cells; assay: Mitotic arrest after live cell peptide transfection (Chariot) of MCF-7 cells; format: cell-based
Procedure: as §1, §2
Human cells were fixed on glass coverslips in −20° C. methanol for 10 minutes, washed with 1×PBS and permeabilized in 0.5% Triton X-100 for 20 minutes. Following further washes, cells were blocked for 30 minutes in 1% bovine serum albumin/knock out serum replacement (BSA/KOSR). For peptide localization to centrosomes, 1 μg/mL of peptide was applied after blocking and before primary antibody application. Antibodies used were primary mouse anti-γ-tubulin monoclonal (1:5,000; Sigma-Aldrich cat. T5326) or primary mouse anti-α-tubulin monoclonal DM1A (1:1,000; Santa Cruz Biotech cat. sc-32293), primary His-tag polyclonal antibody (1:1,000; Cell Signaling cat. 2365), secondary goat anti-mouse Alexa Fluor 488 IgG (1:1,000; Life Technologies cat. A-11001) and secondary goat anti-rabbit Texas Red (1:1,000; Life Technologies cat. T-6391). Antibodies were diluted in 1% BSA/KOSR antibody dilution buffer. […]
as §3

Chain of human γ-TuRC (centrosome MTOC of human breast cancer cells) (human) (P23258 whole entry, chain 1 of 2): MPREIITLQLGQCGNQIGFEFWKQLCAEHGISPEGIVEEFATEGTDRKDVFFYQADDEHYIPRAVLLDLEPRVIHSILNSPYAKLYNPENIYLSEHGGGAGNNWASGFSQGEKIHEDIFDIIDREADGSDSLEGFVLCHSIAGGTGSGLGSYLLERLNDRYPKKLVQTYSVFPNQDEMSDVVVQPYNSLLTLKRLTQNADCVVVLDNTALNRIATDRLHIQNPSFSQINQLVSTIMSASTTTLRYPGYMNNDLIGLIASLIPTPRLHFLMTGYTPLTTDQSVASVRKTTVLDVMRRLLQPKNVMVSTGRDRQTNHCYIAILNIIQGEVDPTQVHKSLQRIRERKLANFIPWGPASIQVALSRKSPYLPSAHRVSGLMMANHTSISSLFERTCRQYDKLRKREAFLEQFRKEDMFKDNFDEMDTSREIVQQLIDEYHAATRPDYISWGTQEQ
Chain of human γ-TuRC (centrosome MTOC of human breast cancer cells) (human) (Q9BSJ2 whole entry, chain 2 of 2, further chain): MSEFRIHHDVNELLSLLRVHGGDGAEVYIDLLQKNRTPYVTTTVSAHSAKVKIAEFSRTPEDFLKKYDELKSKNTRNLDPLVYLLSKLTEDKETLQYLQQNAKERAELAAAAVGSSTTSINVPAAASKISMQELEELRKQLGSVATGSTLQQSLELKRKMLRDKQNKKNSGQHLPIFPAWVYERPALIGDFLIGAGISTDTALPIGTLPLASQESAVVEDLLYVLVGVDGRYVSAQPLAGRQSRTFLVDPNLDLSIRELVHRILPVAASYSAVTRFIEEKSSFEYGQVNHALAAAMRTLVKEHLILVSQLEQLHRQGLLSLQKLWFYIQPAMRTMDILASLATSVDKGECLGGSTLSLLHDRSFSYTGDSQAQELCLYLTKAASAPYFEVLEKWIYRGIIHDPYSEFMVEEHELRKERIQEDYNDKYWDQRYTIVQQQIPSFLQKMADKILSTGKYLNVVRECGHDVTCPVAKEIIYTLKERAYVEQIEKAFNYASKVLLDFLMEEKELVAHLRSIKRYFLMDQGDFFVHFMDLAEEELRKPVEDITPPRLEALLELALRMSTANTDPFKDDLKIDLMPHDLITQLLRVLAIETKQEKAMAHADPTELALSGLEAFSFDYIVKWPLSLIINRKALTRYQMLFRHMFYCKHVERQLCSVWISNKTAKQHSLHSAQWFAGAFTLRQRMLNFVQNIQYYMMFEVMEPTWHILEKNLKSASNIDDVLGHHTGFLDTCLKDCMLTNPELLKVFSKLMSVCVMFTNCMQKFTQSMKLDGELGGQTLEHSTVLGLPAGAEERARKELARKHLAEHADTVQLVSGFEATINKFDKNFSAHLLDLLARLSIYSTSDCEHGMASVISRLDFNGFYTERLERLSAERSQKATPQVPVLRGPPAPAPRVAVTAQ
T1 sequence (P23258 whole entry): as the sequence (P23258 whole entry, chain 1 of 2) above
T1 sequence (Q9BSJ2 whole entry): as the sequence (Q9BSJ2 whole entry, chain 2 of 2, further chain) above

Row | cells arrested in mitosis 24 hours after transfection, MCF-7 [1] [%] | cells arrested in mitosis 24 hours after transfection, MDA-MB-231 [1] [%] | Substance | mitotic arrest (in words) (MDA-MB-231 cells; MDA-MB-231 (high aggressiveness), live cell transfection) | share of cells receiving peptide that were arrested in mitosis (MDA-MB-231 cells; MDA-MB-231, 24 h, value in brackets in FIG. 13G legend) [%] | cells arrested in mitosis (MDA-MB-231 cells; MDA-MB-231, 24 h after transfection with 1 μg peptide, arrested peptide-positive cells as percentage of entire population, 12 fields at 200×) [%] | block of γ-TuRC microtubule nucleation (in words) (human γ-TuRC) | mitotic arrest (in words) ([2]; MCF-7 (low aggressiveness), live cell transfection) | share of cells receiving peptide that were arrested in mitosis ([2]; MCF-7, 24 h, value in brackets in FIG. 13G legend) [%] | cells arrested in mitosis ([2]; MCF-7, 24 h after transfection with 1 μg peptide, arrested peptide-positive cells as percentage of entire population, 12 fields at 200×) [%] | spindle formation by α-tubulin staining ([2]; MCF-7 cells arrested by peptide, live cell transfection)
1 | 39 | 22.6 | 6-His tagged Kinesin-14 Tail peptide PγTR (γ-TuRC targeting and regulatory peptide) | – | – | – | – | – | – | – | –
2 | – | – | YSKFKESAAPQLKDLIGSGAEKDHEYSLQLQ (also: 6-His tag, end not given here) [PγTR, Kinesin-14 Pkl1 Tail peptide, γ-TuRC targeting and regulatory; used 6-His tagged] | can mitotically arrest both the MCF-7 low and MDA-MB-231 high aggressive cell lines with similar efficiency | 82 | 22.6 | potent inhibitor of nucleation; also recorded: blocks the γ-TuRC MTOC nucleation | can mitotically arrest both the MCF-7 low and MDA-MB-231 high aggressive cell lines with similar efficiency | 90 | 39 | No spindle formation
